From ChEMBL document CHEMBL1201862, “PubChem BioAssay data set” (2004)
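Values below derive from 48-hour exposures of cells grown in 96-well plates, with endpoints linearly interpolated between the two concentrations bracketing the appropriate inhibition level. GI50: concentration for 50% inhibition of growth.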 Activity calls are given as the source filed them. Cut-off read from the data, not from the text of the source: active = GI50 up to about 1.1 µM and inactive = higher.

Experiments:
Assay in all cases: NCI-60 cell line screen, 48 h
[1] = system: RPMI-8226
[2] = system: UACC-257
[3] = system: TK-10
[4] = system: SK-MEL-2
[5] = system: SN12C
[6] = system: K562
[7] = system: NCI-H226
[8] = system: HL-60
[9] = system: SNB-19
[10] = system: KM-20L2
[11] = system: HCT-15
[12] = system: HT-29
[13] = system: SR
[14] = system: KM12
[15] = system: HCC 2998
[16] = system: LOX IMVI
[17] = system: COLO 205
[18] = system: HCT-116
[19] = system: RXF 393
[20] = system: Hs-578T

SMILES | GI50 [1] | GI50 [2] | GI50 [3] | GI50 [4] | GI50 [5] | GI50 [6] | GI50 [7] | GI50 [8] | GI50 [9] | GI50 [10] | GI50 [11] [µM] | GI50 [12] | GI50 [13] | GI50 [14] | GI50 [15] | GI50 [16] | GI50 [17] | GI50 [18] | GI50 [19] | GI50 [20]
CNS(=O)(=O)NNS(=O)(=O)c1ccc2ccccc2c1 | > 100 µM (inactive) | > 100 µM (inactive) | > 100 µM (inactive) | > 100 µM (inactive) | > 100 µM (inactive) | > 100 µM (inactive) | > 100 µM (inactive) | > 100 µM (inactive) | > 100 µM (inactive) | > 100 µM (inactive) | > 100 | > 100 µM (inactive) | 80.2 µM (inactive) | > 100 µM (inactive) | > 100 µM (inactive) | > 100 µM (inactive) | > 100 µM (inactive) | > 100 µM (inactive) | – | –
O=C1NC(c2ccccc2)(c2ccccc2)C(=O)N1CCCCCCN1C(=O)NC(c2ccccc2)(c2ccccc2)C1=O | > 100 µM (inactive) | 26.2 µM (inactive) | 25 µM (inactive) | 15.7 µM (inactive) | 58.1 µM (inactive) | 52.8 µM (inactive) | > 100 µM (inactive) | > 100 µM (inactive) | 12.2 µM (inactive) | > 100 µM (inactive) | > 100 | 45.8 µM (inactive) | – | > 100 µM (inactive) | > 100 µM (inactive) | 62.5 µM (inactive) | > 100 µM (inactive) | – | – | –
Cc1cc(O)nc(NNC(C#N)c2ccccc2O)n1 (stereo unspecified) | 22 µM (inactive) | 39 µM (inactive) | 61 µM (inactive) | 66.8 µM (inactive) | 73.6 µM (inactive) | 41.7 µM (inactive) | 31.1 µM (inactive) | 3.72 µM (inactive) | – | 13.1 µM (inactive) | 11.9 | 30.2 µM (inactive) | 4.3 µM (inactive) | 35.6 µM (inactive) | – | 17.6 µM (inactive) | 31 µM (inactive) | 19.3 µM (inactive) | > 100 µM (inactive) | –
COC[C@@H](/N=C/N1CCc2cc(OC)c(OC)cc2C1)C(C)(C)C | > 100 µM (inactive) | > 100 µM (inactive) | > 100 µM (inactive) | – | > 100 µM (inactive) | > 100 µM (inactive) | > 100 µM (inactive) | > 100 µM (inactive) | > 100 µM (inactive) | > 100 µM (inactive) | > 100 | > 100 µM (inactive) | > 100 µM (inactive) | > 100 µM (inactive) | – | – | > 100 µM (inactive) | > 100 µM (inactive) | > 100 µM (inactive) | –
O=C(N/C(=C\c1cccc([N+](=O)[O-])c1)c1nc2cc([N+](=O)[O-])ccc2[nH]1)c1ccccc1 | – | – | 93.3 µM (inactive) | 24.3 µM (inactive) | 39.4 µM (inactive) | 25.1 µM (inactive) | – | – | 45.4 µM (inactive) | 23.1 µM (inactive) | 22.1 | 44.4 µM (inactive) | 17.1 µM (inactive) | 29.6 µM (inactive) | 33.5 µM (inactive) | – | 35.6 µM (inactive) | – | 12.8 µM (inactive) | –
CCCc1nn(C)c(CCC(=O)N(Cc2ccccc2)Cc2ccccc2)c1CC | > 100 µM (inactive) | > 100 µM (inactive) | > 100 µM (inactive) | > 100 µM (inactive) | > 100 µM (inactive) | – | > 100 µM (inactive) | > 100 µM (inactive) | > 100 µM (inactive) | > 100 µM (inactive) | > 100 | > 100 µM (inactive) | – | > 100 µM (inactive) | > 100 µM (inactive) | > 100 µM (inactive) | > 100 µM (inactive) | > 100 µM (inactive) | > 100 µM (inactive) | –
O=C(O)c1c2c(cc3c1CC1(Cc4ccccc4C1=O)C3)CCC2 (stereo unspecified) | 18.4 µM (inactive) | 50 µM (inactive) | > 66.7 µM (inactive) | 19 µM (inactive) | 46.5 µM (inactive) | 5.79 µM (inactive) | 24.3 µM (inactive) | 3.17 µM (inactive) | 47 µM (inactive) | – | 14.8 | 14.8 µM (inactive) | 2.93 µM (inactive) | 14.4 µM (inactive) | 3.33 µM (inactive) | 23.8 µM (inactive) | 17.4 µM (inactive) | 21.6 µM (inactive) | 25.8 µM (inactive) | 34 µM (inactive)
CN(C)c1ccc(/C=C(\NC(=O)c2ccccc2)C(=O)NC(CC(=O)O)C(=O)O)cc1 (stereo unspecified) | > 100 µM (inactive) | > 100 µM (inactive) | > 100 µM (inactive) | > 100 µM (inactive) | > 100 µM (inactive) | 18.2 µM (inactive) | > 100 µM (inactive) | > 100 µM (inactive) | > 100 µM (inactive) | – | > 100 | > 100 µM (inactive) | 75 µM (inactive) | 39.4 µM (inactive) | > 100 µM (inactive) | 86.3 µM (inactive) | > 100 µM (inactive) | > 100 µM (inactive) | > 100 µM (inactive) | 49.7 µM (inactive)
COC(=O)/C=C1/CCC2[C@@H](C(=O)CC3[C@]2(C)CCC[C@@]3(C)C(=O)OC)C1C (stereo partly specified) | 2.98 µM (inactive) | 10.4 µM (inactive) | 20 µM (inactive) | 16 µM (inactive) | 15.3 µM (inactive) | 3.18 µM (inactive) | 21.2 µM (inactive) | 2.61 µM (inactive) | 17.4 µM (inactive) | 13.1 µM (inactive) | 14 | 5.64 µM (inactive) | – | 12.6 µM (inactive) | 20.1 µM (inactive) | – | 5.57 µM (inactive) | 5.79 µM (inactive) | – | –
Cc1nn(C(=O)c2ccncc2)c2c1C(c1ccc(Cl)cc1)SC(=N)N2 (stereo unspecified) | > 10 µM (inactive) | > 10 µM (inactive) | > 10 µM (inactive) | > 10 µM (inactive) | > 10 µM (inactive) | > 10 µM (inactive) | > 10 µM (inactive) | > 10 µM (inactive) | > 10 µM (inactive) | – | > 10 | > 10 µM (inactive) | > 10 µM (inactive) | > 10 µM (inactive) | > 10 µM (inactive) | > 10 µM (inactive) | > 10 µM (inactive) | > 10 µM (inactive) | > 10 µM (inactive) | > 10 µM (inactive)
O=c1cc(-c2ccccc2)oc2cc(O)cc(O)c12 [CHRYSIN] | 16 µM (inactive) | 21.1 µM (inactive) | 34.5 µM (inactive) | 17.9 µM (inactive) | 17.9 µM (inactive) | 22.8 µM (inactive) | 20.6 µM (inactive) | 16.8 µM (inactive) | 18.5 µM (inactive) | 23.9 µM (inactive) | 20.4 | 23.4 µM (inactive) | 23 µM (inactive) | 15.5 µM (inactive) | 19.8 µM (inactive) | 14.7 µM (inactive) | 18.5 µM (inactive) | 15.2 µM (inactive) | – | –
Cc1ccccc1C(C#N)/C(=N/NC(=O)C(=O)NN)C(=O)Nc1cccc(C(F)(F)F)c1 (stereo unspecified) | > 100 µM (inactive) | > 100 µM (inactive) | > 100 µM (inactive) | > 100 µM (inactive) | > 100 µM (inactive) | > 100 µM (inactive) | > 100 µM (inactive) | > 100 µM (inactive) | > 100 µM (inactive) | > 100 µM (inactive) | > 100 | > 100 µM (inactive) | > 100 µM (inactive) | > 100 µM (inactive) | > 100 µM (inactive) | – | > 100 µM (inactive) | > 100 µM (inactive) | – | –
CC(=O)OC1COC(n2c(=S)n(-c3ccccc3)c(=O)c3ccccc32)C(OC(C)=O)C1OC(C)=O (stereo unspecified) | 22.5 µM (inactive) | > 100 µM (inactive) | – | 13.1 µM (inactive) | > 100 µM (inactive) | 2.51 µM (inactive) | > 100 µM (inactive) | 20.4 µM (inactive) | > 100 µM (inactive) | 4.29 µM (inactive) | 6 | 85.3 µM (inactive) | – | 29.2 µM (inactive) | 58.2 µM (inactive) | 21.4 µM (inactive) | 99.1 µM (inactive) | 47.9 µM (inactive) | 55.3 µM (inactive) | –
COCn1cc(C2=C(C)C(=O)C(C)=C(C)C2=O)cn1 | 27.9 µM (inactive) | 85.5 µM (inactive) | > 100 µM (inactive) | > 100 µM (inactive) | > 100 µM (inactive) | 18.9 µM (inactive) | > 100 µM (inactive) | 4.6 µM (inactive) | > 100 µM (inactive) | – | > 100 | > 100 µM (inactive) | 39.4 µM (inactive) | > 100 µM (inactive) | > 100 µM (inactive) | > 10 µM (inactive) | > 100 µM (inactive) | 20 µM (inactive) | > 100 µM (inactive) | > 100 µM (inactive)
COc1ccc(-c2cc(=O)c3c(O)cc(O)cc3o2)c(OC)c1OC | 17.6 µM (inactive) | > 100 µM (inactive) | > 100 µM (inactive) | > 100 µM (inactive) | > 100 µM (inactive) | 42.7 µM (inactive) | > 100 µM (inactive) | 10.1 µM (inactive) | > 100 µM (inactive) | 30.1 µM (inactive) | – | 80 µM (inactive) | – | 53.1 µM (inactive) | 92 µM (inactive) | 70.1 µM (inactive) | 57.7 µM (inactive) | – | 48.8 µM (inactive) | –
O=[N+]([O-])C(=C(Cl)Cl)C(Cl)=C(Cl)Cl | < 0.0176 µM (active) | 0.166 µM (active) | 0.372 µM (active) | 1.68 µM (inactive) | 0.497 µM (active) | 0.0118 µM (active) | 0.834 µM (active) | < 0.0194 µM (active) | 4.6 µM (inactive) | – | 0.156 | 0.141 µM (active) | 0.13 µM (active) | 1.85 µM (inactive) | 1.3 µM (inactive) | < 0.0117 µM (active) | 0.0368 µM (active) | 0.0929 µM (active) | 0.0391 µM (active) | 0.485 µM (active)
